Cc1ccccc1-c1cccc2c1CNC(=O)N2c1ccccc1 [Example 14, 1-Phenyl-5-(2-methylphenyl)-3,4-dihydro-(1H)-quinazolin-2-one]
melting point: 236 to 238 °C

— patent publication US6759410B1, “3,4-dihydro-(1H)-quinazolin-2-ones and their use as CSBP/p38 kinase inhibitors” (SmithLine Beecham Corporation, priority 1999, dated 2004)
